Each structure is given as a SMILES string.

1 compound from patent US10058540B2, “2-amino-5,5-difluoro-6-(fluoromethyl)-6-phenyl-3,4,5,6-tetrahydropyridines as BACE1 inhibitors” (H. Lundbeck A/S, priority 2014, dated 2018) can be followed below.

The target in data set [1] is T1, BACE1 (Homo sapiens (Human), UniProt P56817). Kind of data set: BACE1 efficacy assay (FRET-based, commercial BACE1 kit). Format: biochemical. To be noted: 10 μM test compound. On the procedure: The efficacy assay was performed as a FRET-based assay using a commercially available BACE1 kit (Life Technologies, P2985). 2 μl test compound at 10 μM (final concentration) and 15 μl BACE1 enzyme from the kit (final concentration 3 nM) were preincubated for 15 minutes at room temperature before addition of 15 μl of substrate from the kit (250 nM final concentration) and incubated for additional 90 minutes at room temperature. The assay plate was subsequently read in a Pherastar (Ex540/Em590). The enzyme activity observed in presence of test compound were normalized to the enzyme activity observed in presence of buffer and 10 μM (final concentration) of the high affinity BACE1 reference inhibitor (S)-6-[3-Chloro-5-(5-prop-1-ynyl-pyridin-3-yl)-thiophen-2-yl]-2-imino-3,6-dimethyl-tetra-hydropyrimidin-4-one, respectively. The efficacy of the test compounds was evaluated at 10 μM (final concentration) and defined as the percent inhibition of the enzyme activity using the equation % inhibition=100%−normalized enzyme activity in percent.

Data set [2] addresses T1, BACE1. Kind of data set: BACE1 binding assay (SPA-based, radioligand). To be noted: pH 4.5, Ki=IC50/(1+L/Kd). The protocol: The binding assay was performed as SPA-based assay using a biotinylated form of human BACE1 recombinantly expressed and subsequently purified from Freestyle HEK293 cells. The binding assay was run in a 50 mM sodium acetate buffer, pH 4.5 containing 50 mM NaCl and 0.03% Tween-20 in white clear bottom 384 plates (Corning #3653). 10 nM (final concentration) radioligand ([^3H]-N-((1S,2R)-1-benzyl-3-cyclopropylamino-2-hydroxy-propyl)-5-(methanesulfonyl-methyl-amino)-N-((R)-1-phenyl-ethyl)-isophthalamide) (TRQ11569 purchased from GE Healthcare) was mixed with test compound at a given concentration, 6 nM (final concentration) human BACE1 and 25 μg Streptavidin coated PVT core SPA beads (RPNQ0007, GE Healthcare Life Sciences) in a total volume of 40 μl. Several concentrations of each test compound were tested in the assay for IC50 determination. The plates were incubated for one hour at room temperature and counted in a Wallac Trilux counter. Total and non-specific binding were determined using buffer and 1 μM (final concentration) of the high affinity BACE1 reference inhibitor (S)-6-[3-chloro-5-(5-prop-1-ynyl-pyridin-3-yl)-thiophen-2-yl]-2-imino-3,6-dimethyl-tetrahydro-pyrimidin-4-one, respectively. For each test compound, a IC50 value (the concentration mediating 50% inhibition of the specific binding of the radioligand) was determined from concentration-response curve and used to calculate the Ki from the equation Ki=IC50/(1+L/Kd), where L and Kd are the final concentration of the radioligand used in the assay and the dissociation constant of the radioligand, respectively. The Kd of the radioligand was determined from saturation binding experiments.

The subject of a further data set is P-gp (MDR1). The experiment in a line: MDCK-MDR1 assay (permeability / Pgp efflux). The class given is in vitro ADME. To be noted: dog, Papp BA/Papp AB, Pgp substrate when ≥2. On the procedure:
The permeability of the test compounds was assessed in MDCK-MDR1 cells that were cultured to confluency (4-6 days) in a 96 transwell plate. Test compounds were diluted with the transport buffer (HBSS+1% BSA) to a concentration of 0.5 μM and applied to the apical or basolateral side of the cell monolayer. Permeation of the test compounds from A to B direction or B to A direction was determined in triplicate over a 60-minute incubation time at 37° C. and 5% CO2 with a relative humidity of 95%. Test compounds were quantified by LC-MS/MS analysis based on the peaks area ratios of analyte/IS in both the receiver and donor wells of the transwell plate.
The apparent permeability coefficient Papp (cm/s) was calculated using the equation: Papp=(dCr/dt)×Vr/(A×C0) Where dCr/dt is the cumulative concentration of compound in the receiver chamber as a function of time (μM/s); Vr is the solution volume in the receiver chamber (0.05 mL on the apical side; 0.25 mL on the basolateral side); A is the surface area for the transport, i.e. 0.0804 cm^2 for the area of the monolayer; C0 is the initial concentration in the donor chamber (μM).
Compounds are classified Pgp substrates when efflux ratio (Papp BA/Papp AB) is ≥2.

T1 sequence (P56817 46-501): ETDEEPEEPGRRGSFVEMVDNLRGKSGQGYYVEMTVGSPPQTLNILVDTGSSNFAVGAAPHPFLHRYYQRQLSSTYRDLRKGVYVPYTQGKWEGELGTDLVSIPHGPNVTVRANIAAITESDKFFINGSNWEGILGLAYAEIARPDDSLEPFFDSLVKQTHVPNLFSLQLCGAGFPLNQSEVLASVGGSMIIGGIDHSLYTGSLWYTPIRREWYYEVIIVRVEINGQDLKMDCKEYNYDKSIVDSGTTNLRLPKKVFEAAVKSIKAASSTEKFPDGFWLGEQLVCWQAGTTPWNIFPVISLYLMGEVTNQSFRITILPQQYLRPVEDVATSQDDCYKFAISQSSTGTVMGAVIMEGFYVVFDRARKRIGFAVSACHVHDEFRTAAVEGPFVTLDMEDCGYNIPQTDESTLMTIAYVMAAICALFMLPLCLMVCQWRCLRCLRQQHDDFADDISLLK

For orientation: inhibition means the change of the read-out against control, counted positive when it falls. For orientation: Ki means a measure of affinity in units of concentration, obtained from inhibition or displacement. Read a low Ki as higher affinity. As a reminder, the efflux ratio is a quotient of directional permeabilities that is used to spot active efflux. With `COc1cnc(C(=O)Nc2cc(F)c(F)c([C@@]3(CF)N=C(N)CCC3(F)F)c2)cn1` [Compound 11, (S)-N-(3-(6-amino-3,3-difluoro-2-(fluoromethyl)-2,3,4,5-tetrahydropyridin-2-yl)-4,5-difluorophenyl)-5-methoxypyrazine-2-carboxamide], the inhibition at 10 µM against BACE1 [1] stood at 103%. Besides, affinity on BACE1 [2] was put at a Ki of 14 nM. In addition, the efflux ratio at 60 min, 0.5 μM in the data set with P-gp (MDR1) was 0.77.
